This passage reports IC50 results from patent US20150307491A1, “SUBSTITUTED PYRIDOPYRAZINES AS SYK INHIBITORS” (HUTCHISON MEDIPHARMA LIMITED, priority 2012, published 2015).

Experiment [1] addresses Syk kinase (Homo sapiens, UniProt P43405). The experiment is described as follows: SYK enzymatic assay. The class given is biochemical. The following applies: Tyr 2 Peptide, 8 concentrations 1 μM down to 0.0003 μM. The method, then:
Syk kinase assay are performed in vitro using Kit-Tyr 2 Peptide (Invitrogen, Cat. No. PV3191) and in a 384-well assay plate. […] The 384-well assay plate (Corning, Cat. No. 3575) is mixed and incubated at room temperature for 1 hour. 10 μL of the Development Solution (prepared by diluting Development Reagent A (Cat. No. PV3297) to 1/32 with Development Buffer (Cat. No. PV3127)) is then added to each well, mixed and incubated at room temperature for another 1 hour. The reactions are then stopped by adding 10 μL of the Stop Reagent (Invitrogen, Cat. No. PV3094), and the plate is read with Wallac 1420 VICTOR^3 Multilabel Counter (PerkinElmer™) at 445 nm and 520 nm fluorescence. All compounds are tested at 8 concentrations (1 μM down to 0.0003 μM) using a 1:3 serial dilution scheme.

The test system of experiment [2] is RBL-2H3 cells. The experiment is described as follows: IgE-induced Beta-hexosaminidase secretion in RBL-2H3 cells. The class given is cell-based. The following applies: Rattus norvegicus; RBL-2H3 cells sensitized with SPE-7, stimulated with DNP-BSA. The procedure:
For the determination of IgE-induced Beta-hexosaminidase secretion, RBL-2H3 cells (SIBS) are seeded in 96 well plates at 4×10^4 cells per well and incubated in MEM media with 15% FBS and Glutamine ([…]) for 4 hours and sensitized with 0.5 ug/ml of SPE-7 overnight. Cells are washed 3 times with Tyrode's buffer and incubated in the presence or absence of various concentrations of the testing compound for 20 min at 37° C., 5% CO2. Cells are stimulated by adding 10 μL of DNP-BSA solution (150 ng/mL) to each well and incubating for 45 minutes at 37° C., 5% CO2. Then, 45 μL of the supernatant is taken and incubated with 100 μL of 1 mM 4-Nitrophenyl N-acetyl-β-D-glucosaminide (Sigma, Cat. No. N9376), which is diluted in 0.05 M citrate buffer (pH 4.5), for 1.5 hr at 37° C. The reactions are quenched by adding 185 μL of 0.05 M sodium carbonate buffer (pH 10.0). Plates are read at 405 nm on Multiskan (MK 3).

Experiment [3] addresses T1, Recombinant human KDR (VEGFR-2) (Homo sapiens, UniProt P35968).
T1 construct: purchased Invitrogen PV3660
The experiment is described as follows: Transcreener kinase assay of VEGFR-2 (KDR). The following applies: Poly E4Y substrate. Format: biochemical. The procedure:
Transcreener kinase assay of VEGFR-2 (KDR)
1. Solution preparation • 1) Transcreenen™ KINASE Assy kit: Bellbrook Labs, 3003-10 K; • 2) Recombinant human KDR: Invitrogen, PV3660; • 3) Poly E4Y (substrate): Sigma, P0275; 5 mg/mL, dissolved in MilliQ water; • 4) Assay buffer: 67 mM HEPES, 0.013% Triton X-100, 27 mM MgCl2, 0.67 mM MnCl2 1.25 mM DTT, PH 7.4; • 5) 10 mM ATP: Invitrogen, PV3227; • 6) 500 mM EDTA: Invitrogen, 15575-038; • 7) 96 well black Greiner plate: Greiner, 675076.
2. Prepare solution • 1) Dilute the compound to 5 folds of final concentrations, keeping the DMSO concentration at 5%. The final concentrations are 1, 0.33, 0.11, 0.037, 0.012, 0.004, 0.0014, 0.0005 μM; and the final concentration of DMSO is 1%. • 2) Prepare Enzyme/Substrate stock, Recombinant human KDR and Poly E4Y are both diluted in assay buffer. The final concentration is KDR (0.3 ng/μL), Poly E4Y (62.5 ng/μL). The mixture is keeping on ice surface before use; • 3) Prepare ATP Diluents, 10 mM ATP is diluted in assay buffer, the final concentration is 25 μM; • 4) Prepare ADP Diluents: diluted ADP (500 μM) in assay buffer, the final concentration is 25 μM; • 5) Prepare ATP standard curve stock as following:
3. Enzymatic reaction • 1) Add 5 μL of compound or control. (positive control, 5 μL of 5% DMSO; negative control, 5 μL of 500 mM EDTA); • 2) Add 10 μL of Enzyme/Substrate stock; • 3) Add 10 μL of ATP Diluents to begin the enzyme reaction and mix on plate shaker; • 4) Add 5 μL 5% DMSO, 10 μL of assay buffer and 10 μL of ATP standard curve stock into standard curve wells; • 5) Incubate at 28° C. for 45 min, keeping plate in gently shaking.
4. Stop reaction and detect ADP • 1) Prepare Detection Mix: diluted ADP Alexa633 tracer (1:100), ADP antibody (1:158), and stop & detect buffer (1:10) by MilliQ water; • 2) Prepare Tracer Only control: diluted ADP Alexa633 tracer (1:100) and stop & detect buffer (1:10) by MilliQ water; • 3) Prepare No Tracer control: diluted stop & detect buffer (1:10) by MilliQ water; • 4) Add 25 μL of detection mix, Tracer Only control and No Tracer control into corresponding wells, respectively; • 5) Incubate at 28° C. for 1 h, keeping plate in gently shaking; • 6) Measure florescence polarization (FP) on TECAN F500. Excitation wavelength: 610 nm, Emission wavelength: 670 nm.
Wherein: • 1) Compound well [ADP] represents the ADP concentration of compound well. • 2) Positive control well [ADP] represents the ADP concentration of 5% DMSO well • 3) Conversion of mP value to ADP concentration based on the formula which determined by standard curve.
IC50: calculated using XL-Fit 2.0 software.

The target in experiment [4] is T2, Flt3 kinase (Homo sapiens, UniProt P36888).
T2 construct: purchased Invitrogen PV3182
T2 sequence (P36888 564-993 limits assumed): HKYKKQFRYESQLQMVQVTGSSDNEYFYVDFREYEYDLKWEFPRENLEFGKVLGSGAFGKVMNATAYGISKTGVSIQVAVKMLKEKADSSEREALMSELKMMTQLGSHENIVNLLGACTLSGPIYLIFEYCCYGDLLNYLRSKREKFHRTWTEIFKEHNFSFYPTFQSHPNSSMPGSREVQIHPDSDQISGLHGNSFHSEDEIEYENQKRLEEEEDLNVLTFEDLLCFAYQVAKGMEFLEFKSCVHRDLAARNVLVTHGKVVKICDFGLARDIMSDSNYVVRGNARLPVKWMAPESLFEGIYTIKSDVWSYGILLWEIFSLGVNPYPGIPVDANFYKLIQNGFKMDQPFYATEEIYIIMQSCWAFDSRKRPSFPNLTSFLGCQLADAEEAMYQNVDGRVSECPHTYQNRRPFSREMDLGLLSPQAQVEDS
The experiment is described as follows: Z-lyte kinase assay of Flt-3. The class given is biochemical. The following applies: Z-LYTE Tyr 2 peptide; final concentrations 3 to 0.0014 μM. The procedure:
Z-lyte kinase assay of Flt-3:
Dilute 5× Kinase Buffer to 1,33× with ddH2O
Serially dilute the test compounds to 4 folds of the concentrations desired, keeping the DMSO concentration at 8%. The final concentrations were 3, 1, 0.33, 0.11, 0.037, 0.012, 0.004, 0.0014 μM, and the final concentration of DMSO was 2%,
Prepare Kinase/Peptide Mixture by diluting the kinase to 0.12 μg/mL and the Z-LYTE™ Tyr 2 peptide to 4 μM in 1.33× Kinase Buffer. Mix gently by pipetting. 4) Phcspho-peptide Solution (PP solution)
Add 0.4 μL of Z-LYTE™ Tyr 2 Phospho-peptide to 99.6 μL of 1.33× Kinase Buffer.
Prepare ATP Solution by diluting the 10 mM of ATP in 1.33× Kinase Buffer to 1.88 mM.
Dilute Development Reagent A with Development Buffer as 1:64.
1) Kinase reaction (10 μL of Volume) • a. Add 2.5 μL of 4× test Cpds to each well except C1, C2, C3 wells
Add 2.5 μL of 8% DMSO to C1, C2, C3 wells • b. Put the 384-plate on ice • c. Add 5 μL of P/K mixture to each test Cpd wells and C1, C2 wells • d. Add 5 μL of PP Solution to C3 well • e. Add 2.5 μL of 1,33× kinase buffer to C1 and C3 wells • f. Add 2.5 μL of 4×ATP Solution to each test Cpd wells and C2 well, respectively.
Shake the plate for 30 Sec and centrifuge (1500 rpm, 1 min) • g. Seal the plate to protect from the light and incubate the plate for 1 hour at RT (25-30° C.) 2) Development reaction • a. Add 5 μL of the Development solution to all wells • b. Shake the plate for 30 Sec and centrifuge (1500 rpm, 1 min) • c. Seal the plate to protect from the light and incubate the plate for 1 hour at RT (25-30° C.) 3) Stop and read • a. Add 5 μL of the Stop reagent to all wells • b. Shake the plate for 30 Sec and centrifuge (1500 rpm, 1 min) • c. Measure the value of Coumarin (Ex400 nm, Em445 nm) and fluorescein (Ex400 nm, Em520 nm), respectively. 4. Data analysis
Emission Ratio (ER) Coumarin Emission (445 nm)/Fluorescein Emission (520 nm)
inhibition ratio (IR)=1−% Photest Cpd/% PhoC2%
IC50 Value: determined with add-in software for Microsoft Excel, XLfit™ (version 2.0) from ID Business Solutions (Guildford: UK)

T1 sequence (P35968 789-1356 limits assumed): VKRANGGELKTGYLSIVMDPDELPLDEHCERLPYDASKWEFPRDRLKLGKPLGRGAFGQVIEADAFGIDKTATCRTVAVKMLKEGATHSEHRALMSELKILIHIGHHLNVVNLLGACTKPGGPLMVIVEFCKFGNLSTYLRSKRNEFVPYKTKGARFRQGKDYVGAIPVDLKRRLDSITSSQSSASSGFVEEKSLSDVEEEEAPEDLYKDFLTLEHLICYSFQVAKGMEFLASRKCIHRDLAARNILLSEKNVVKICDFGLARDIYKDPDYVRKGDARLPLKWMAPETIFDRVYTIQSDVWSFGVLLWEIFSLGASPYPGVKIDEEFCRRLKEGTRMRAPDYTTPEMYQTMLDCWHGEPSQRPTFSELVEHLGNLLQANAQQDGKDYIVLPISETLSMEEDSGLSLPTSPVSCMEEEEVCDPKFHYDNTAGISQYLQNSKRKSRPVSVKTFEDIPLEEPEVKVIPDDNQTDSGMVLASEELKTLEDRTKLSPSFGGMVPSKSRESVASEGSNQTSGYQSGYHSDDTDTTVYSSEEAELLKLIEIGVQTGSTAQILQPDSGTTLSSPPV

Broadly, the IC50 is the concentration that inhibits the measured activity by half. On to `CC(C)S(=O)(=O)N1CCO[C@H](COc2nc(-c3ccc(N(C)C)cc3)cc3nccnc23)C1` [Compound 89], for which the IC50 lay in the range of 0.001 to 0.1 µM in experiment [1] and 0.1 to 1 µM in experiment [2].

`CN(C)c1ccc(-c2cc3nccnc3c(OC[C@@H]3CN(C(=O)[C@H]4CC[C@H](O)CC4)CCO3)n2)cc1` [Compound 75] had an IC50 in experiment [1] of 0.001 to 0.1 µM.

Consider `CS(=O)(=O)N1CCN(c2ccc(-c3cc4nccnc4c(OC[C@@H]4CN(S(C)(=O)=O)CCO4)n3)cc2)CC1` [Compound 26], for which the IC50 in experiment [3] was 1.6 µM; in experiment [2] it was 0.1 to 1 µM.

For `CN(C)c1ccc(-c2cc3nccnc3c(OC[C@@H]3CN(C(=O)C4CC4)CCO3)n2)cc1` [Compound 69], the values for the IC50 in experiment [4] and in experiment [2] were over 3 µM and 0.001 to 0.1 µM, respectively.

On to `CS(=O)(=O)N1CCC(c2ccc(-c3cc4nccnc4c(OC[C@@H]4CN(S(C)(=O)=O)CCO4)n3)cc2)CC1` [Compound 57, (S)-4-(methylsulfonyl)-2-((7-(4-(1-(methylsulfonyl)piperidin-4-yl)phenyl)pyrido[4,3,-b]pyrazin-5-yloxy)methyl)morpholine], for which the IC50 in experiment [3] was 1.56 µM; in experiment [4], 1.64 µM; in experiment [2], 0.001 to 0.1 µM.

For the molecule `CN(C)c1ccc(-c2cc3nccnc3c(OC[C@@H]3CN(S(C)(=O)=O)CCO3)n2)cc1` [Compound 94], the IC50 is 2.01 µM in experiment [4] and 0.001 to 0.1 µM in experiment [2].

Consider `CN(C)c1ccc(-c2cc3nccnc3c(OC[C@@H]3CN(C(=O)[C@H]4CCOC4)CCO3)n2)cc1` [Compound 95], for which the IC50 in experiment [4] is 2.82 µM; in experiment [2] it was 0.001 to 0.1 µM.

As to `CN(C)c1ccc(-c2cc3nccnc3c(OC[C@@H]3CN(S(C)(=O)=O)CCO3)n2)cc1F` [Compound 53], the IC50 in experiment [3] was 2.96 µM; in experiment [2], 0.001 to 0.1 µM.

For the molecule `O=C(C(F)F)N1CCO[C@H](COc2nc(-c3ccc(C4CCOCC4)cc3)cc3nccnc23)C1` [Compound 9], the values for the IC50 in experiment [1] and in experiment [2] were 0.001 to 0.1 µM and 0.1 to 1 µM, respectively.

For `O=C(C(F)F)N1CCO[C@H](COc2nc(-c3ccc(N4CCOCC4)c(F)c3)cc3nccnc23)C1` [Compound 15], the IC50 lay in the range of 0.001 to 0.1 µM in experiment [1] and 0.1 to 1 µM in experiment [2].

Consider `CN(C)c1ccc(-c2cc3nccnc3c(OC[C@@H]3CN(C(=O)C(F)F)CCO3)n2)cc1F` [Compound 32], for which the IC50 in experiment [4] is over 3 µM; in experiment [2], 0.001 to 0.1 µM.

Take `COc1ccc(-c2cc3nccnc3c(OC[C@@H]3CN(S(C)(=O)=O)CCO3)n2)cc1OC` [Compound 43]: the IC50 is over 3 µM in experiment [3], 1.6 µM in experiment [4] and 0.001 to 0.1 µM in experiment [2].

Take `CC(=O)N1CCC(c2ccc(-c3cc4nccnc4c(OC[C@@H]4CN(S(C)(=O)=O)CCO4)n3)cc2)CC1` [Compound 33]: the IC50 in experiment [3] is 1.33 µM; in experiment [2], 0.001 to 0.1 µM.

Take `CC(=O)N1CCO[C@H](COc2nc(-c3ccc(N(C)C)cc3)cc3nccnc23)C1` [Compound 67]: the IC50 was 2.52 µM in experiment [4] and 0.001 to 0.1 µM in experiment [2].

As for `CN(C)c1ccc(-c2cc3nccnc3c(OC[C@@H]3CN(S(C)(=O)=O)CCO3)n2)cc1Cl` [Compound 108], the half-inhibitory concentration (IC50) in experiment [3] was over 3 µM; in experiment [4], 2.42 µM; in experiment [2], 0.001 to 0.1 µM.

Take `CS(=O)(=O)N1CCO[C@H](COc2nc(-c3ccc4c(c3)OCCO4)cc3nccnc23)C1` [Compound 109]: the IC50 in experiment [1] is 0.001 to 0.1 µM; in experiment [2] it was 0.1 to 1 µM.

On to `CN(C)c1ccc(-c2cc3nccnc3c(OC[C@@H]3CN(C(=O)CC4CC4)CCO3)n2)cc1` [Compound 70], for which the results for the IC50 in experiment [1] and in experiment [2] were 0.001 to 0.1 µM and 0.1 to 1 µM, respectively.

With `CN(C)c1ccc(-c2cc3nccnc3c(OC[C@@H]3CN(C(=O)C(F)F)CCO3)n2)cc1` [Compound 100], the results for the IC50 in experiment [4] and in experiment [2] were over 3 µM and 0.001 to 0.1 µM, respectively.

Turning to `CN(C)c1ccc(-c2cc3nccnc3c(OC[C@@H]3CN(S(=O)(=O)C4CC4)CCO3)n2)cc1` [Compound 90], the figures for the IC50 in experiment [4] and in experiment [2] were over 3 µM and 0.001 to 0.1 µM, respectively.
